Experimental findings from paper PMC10447463, “Data-mining unveils structure–property–activity correlation of viral infectivity enhancing self-assembling peptides” (Nature Communications, 2023) are described below.

Like-named read-outs stand apart in the source and are kept apart here.

A short description of data set [1]: Turbidity, derived count rate of scattered light. The class given is physicochemical. Particulars: for Count Rate: derived count rate of scattered light (turbidity); for Log10 Count Rate: turbidity, derived count rate of scattered light, data of Figure 2D.
The format of data set [2] is physicochemical. Also noted: key to Fibril / Fibril Formation / TEM 2cat / Fibril: 1 = fibrils present; 0 non-fibrillar structures. Particulars: for Fibril / Fibril Formation: 1 mg/mL, uranyl acetate stain, qualitative.
Data set [3] is classed as physicochemical. Particulars: for ThT Cat. / ThT-Fluorescence (categorical): ThT-active if fluorescence at least twice the control. Put shortly:
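Fibrils (1 mg/mL solution) were mixed with 50 µM ThT in PBS for 15 min at RT, and fluorescence was read at λex 440/λem 488 nm against a PBS blank, as a triplicate mean ± SD. Zeta potential came from electrophoretic mobility (Smoluchowski) after 1 d aggregation at 1 mg/mL in PBS pH 7.4, diluted into 1 mM KCl.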

Where [4] appears, read: Fig S10 panel D, fibril category by TEM.
The mark [5] stands for this setting: TEM, 1 = fibrils present, 0 = non-fibrillar.
Setting [6] is: TEM, 1 = fibrils present, 0 = non-fibrillar structures.
Setting [7] is: category: fibrils present or non-fibrillar.
[8] abbreviates: ThT fluorescence category, 1 if Rel. ThT >2.

Regarding KIKIKIQINMWQ, in data set [1], the “Count Rate” value came to 1603.1 and the “Log10 Count Rate” value is 3.205. Moreover, the “TEM 2cat” value in data set [2] (setting [4]) is 1. Moreover, in data set [2] (TEM), the “Fibril / Fibril Formation” value is given as 1. Also, in data set [2] (setting [5]), the Fibril came to 1. This substance had a Fibril in data set [2] (setting [6]) of 1. Besides, in data set [2] (setting [7]), the “TEM 2cat” value is reported as 1. Besides, the “Tht category (> 2 to blank = +)” value in data set [3] (Fig S10 panel D) is 0 (ThT-inactive (N-Fold <2)). Further, in data set [3] (ThT category, 1 if Rel. ThT >2), the “ThT Cat,” value is 0 (ThT-inactive (N-Fold <2)) and the “ThT Cat.” value is 0 (ThT-inactive (N-Fold <2)). Moreover, the “ThT Cat. / ThT-Fluorescence (categorical)” value (shortened to “ThT Cat. / ThT-Fluorescence”) in data set [3] is 0 (ThT-inactive (N-Fold <2)).

Consider KIKIQIC, for which the “Count Rate” value in data set [1] is on record as 980.7. Further, the “Log10 Count Rate” value in data set [1] was determined as 2.992. In addition, the “TEM 2cat” value in data set [2] (setting [4]) and in data set [2] (setting [7]) was 1 each time. Further, the Fibril in data set [2] (Fig S10 panel E), in data set [2] (setting [5]) and in data set [2] (setting [6]) was 1 in each case. In data set [2] (TEM), the “Fibril / Fibril Formation” value is given as 1. The “Tht category (> 2 to blank = +)” value in data set [3] (Fig S10 panel D) was 1 (ThT. Cat is 1, if Rel. ThT >2). Moreover, the “ThT Cat.” value is 1 (ThT. Cat is 1, if Rel. ThT >2) in data set [3] (Fig S10 panel E) and 1 (ThT. Cat is 1, if Rel. ThT >2) in data set [3] (setting [8]). Besides, the “ThT Cat,” value in data set [3] (ThT category, 1 if Rel. ThT >2) was 1 (ThT. Cat is 1, if Rel. ThT >2). The “ThT Cat. / ThT-Fluorescence” value in data set [3] is recorded as 1 (ThT. Cat is 1, if Rel. ThT >2).

In the case of KIKIQII, the “Count Rate” value in data set [1] is reported as 1039. Also, in data set [1], the “Log10 Count Rate” value is 3.017. The “TEM 2cat” value in data set [2] (setting [4]) is listed as 1; in data set [2] (FigS12 panel A, fibril category by TEM) it was 1. The Fibril is recorded as 1 in data set [2] (FigS12 panel B, TEM); 1 in data set [2] (setting [5]); 1 in data set [2] (setting [6]). Also, the “Fibril / Fibril Formation” value in data set [2] (TEM) is 1. Moreover, the “Tht category (> 2 to blank = +)” value in data set [3] (Fig S10 panel D) and in data set [3] (FigS12 panel A) was 0 (ThT-inactive (N-Fold <2)) in each case. The “ThT Cat,” value in data set [3] (FigS12 panel B) is 0 (ThT-inactive (N-Fold <2)); in data set [3] (ThT category, 1 if Rel. ThT >2), 0 (ThT-inactive (N-Fold <2)). The “ThT Cat.” value in data set [3] (setting [8]) was 0 (ThT-inactive (N-Fold <2)). Further, the “ThT Cat. / ThT-Fluorescence” value in data set [3] was 0 (ThT-inactive (N-Fold <2)).

Turning to KIKIQIII, in data set [1], the “Count Rate” value is listed as 94.97. Moreover, the “Log10 Count Rate” value in data set [1] was 1.978. Further, the “TEM 2cat” value in data set [2] (setting [4]) and in data set [2] (setting [7]) was 1 in each case. For the same substance, the Fibril in data set [2] (Fig S10 panel E), in data set [2] (setting [5]) and in data set [2] (setting [6]) was 1 each time. In addition, the “Fibril / Fibril Formation” value in data set [2] (TEM) came to 1. Also, the “Tht category (> 2 to blank = +)” value in data set [3] (Fig S10 panel D) was 1 (ThT. Cat is 1, if Rel. ThT >2). Also, the “ThT Cat.” value is listed as 1 (ThT. Cat is 1, if Rel. ThT >2) in data set [3] (Fig S10 panel E) and 1 (ThT. Cat is 1, if Rel. ThT >2) in data set [3] (setting [8]). In data set [3] (ThT category, 1 if Rel. ThT >2), the “ThT Cat,” value is 1 (ThT. Cat is 1, if Rel. ThT >2). In data set [3], the “ThT Cat. / ThT-Fluorescence” value was 1 (ThT. Cat is 1, if Rel. ThT >2).

As to KIKIQIMQWN, in data set [1], the “Count Rate” value was found to be 2202.7 and the “Log10 Count Rate” value was 3.343. Besides, in data set [2] (setting [4]), the “TEM 2cat” value came to 1. The “Fibril / Fibril Formation” value in data set [2] (TEM) turned out to be 1. In addition, in data set [2] (setting [5]), the Fibril is given as 1. In data set [2] (setting [6]), this substance returned a Fibril of 1. In addition, in data set [2] (setting [7]), the “TEM 2cat” value is given as 1. In data set [3] (Fig S10 panel D), the “Tht category (> 2 to blank = +)” value was 0 (ThT-inactive (N-Fold <2)). In data set [3] (ThT category, 1 if Rel. ThT >2), the “ThT Cat,” value is 0 (ThT-inactive (N-Fold <2)) and the “ThT Cat.” value was 0 (ThT-inactive (N-Fold <2)). The “ThT Cat. / ThT-Fluorescence” value in data set [3] was 0 (ThT-inactive (N-Fold <2)).

Consider KIKIQIMWNQ, for which the “Count Rate” value in data set [1] is given as 1887. For the same substance, the “Log10 Count Rate” value in data set [1] was determined as 3.2757. Also, the “TEM 2cat” value in data set [2] (setting [4]) and in data set [2] (setting [7]) was 1 each time. For the same substance, the “Fibril / Fibril Formation” value in data set [2] (TEM) is 1. The Fibril in data set [2] (setting [5]) and in data set [2] (setting [6]) was 1 throughout. In data set [3] (Fig S10 panel D), the “Tht category (> 2 to blank = +)” value is 0 (ThT-inactive (N-Fold <2)). Besides, in data set [3] (ThT category, 1 if Rel. ThT >2), the “ThT Cat,” value was 0 (ThT-inactive (N-Fold <2)). Besides, the “ThT Cat.” value in data set [3] (ThT category, 1 if Rel. ThT >2) is 0 (ThT-inactive (N-Fold <2)). In addition, the “ThT Cat. / ThT-Fluorescence” value in data set [3] was 0 (ThT-inactive (N-Fold <2)).
